Here are results for seven molecules from PubChem BioAssay (NCI).

Each structure is given as a SMILES string.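 Method: 48-hour compound exposure of cells in 96-well plates, five concentrations, linear interpolation of endpoints. At the TGI there is no net growth.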

Among the test systems are 786-0 renal; CCRF-CEM leukemia; HCC-2998 colon; HOP-62 NSCLC; HT29 colon; K-562 leukemia; MDA-MB-231 breast; MOLT-4 leukemia; OVCAR-8 ovarian; RPMI-8226 leukemia; SK-MEL-5 melanoma; SK-OV-3 ovarian; SN12C renal; SNB-19 CNS; T-47D breast; UO-31 renal.
Assay in all cases: NCI-60 cell line screen, 48 h

Take `NC1CC(=O)c2c(Br)csc21` (centres undefined): the TGI in the experiment on 786-0 renal was over 100 µM; in the experiment on CCRF-CEM leukemia it was over 100 µM; with HCC-2998 colon it was 44.8 µM; with HOP-62 NSCLC, over 100 µM; in the experiment on HT29 colon, over 100 µM; with K-562 leukemia it was over 100 µM. Besides, the TGI in the experiment with MDA-MB-231 breast, in the experiment with MOLT-4 leukemia, with OVCAR-8 ovarian, in the experiment on RPMI-8226 leukemia, in the experiment with SK-MEL-5 melanoma and in the experiment with SK-OV-3 ovarian was over 100 µM in each case. Also, the TGI in the experiment with SN12C renal is over 100 µM; in the experiment with SNB-19 CNS, over 100 µM; in the experiment on T-47D breast it was over 100 µM; in the experiment with UO-31 renal, 81.2 µM.
Take `CC(C)(Cl)C(Br)CCC(C)(Cl)C(Br)CBr` (centres undefined): the TGI in the experiment on 786-0 renal was 61.9 µM; in the experiment on CCRF-CEM leukemia it was 76.9 µM; in the experiment with HCC-2998 colon, over 100 µM; in the experiment on HOP-62 NSCLC, 57.3 µM; in the experiment with HT29 colon, 46.8 µM; in the experiment on K-562 leukemia, over 100 µM. Moreover, the TGI is 47.2 µM in the experiment with MDA-MB-231 breast; over 100 µM with MOLT-4 leukemia; over 100 µM with OVCAR-8 ovarian; 42.2 µM in the experiment with RPMI-8226 leukemia; 34.5 µM in the experiment with SK-MEL-5 melanoma; over 100 µM in the experiment with SK-OV-3 ovarian. For the same molecule, the TGI in the experiment with SN12C renal is 54.2 µM; with SNB-19 CNS it was over 100 µM; in the experiment with T-47D breast, 81.3 µM; in the experiment with UO-31 renal it was over 100 µM.
`COc1ccc(N2C(=O)CC(C3CC(C(C)(C)C)CCC3=O)C2=O)cc1` (centres undefined): the TGI in the experiment on 786-0 renal, in the experiment on CCRF-CEM leukemia, in the experiment on HCC-2998 colon, in the experiment on HOP-62 NSCLC, in the experiment on HT29 colon and in the experiment on K-562 leukemia was over 100 µM throughout. In addition, the TGI in the experiment with MDA-MB-231 breast, in the experiment with MOLT-4 leukemia, with OVCAR-8 ovarian, in the experiment on RPMI-8226 leukemia, with SK-MEL-5 melanoma and with SK-OV-3 ovarian was over 100 µM in each case. In addition, the TGI in the experiment on SN12C renal, in the experiment with SNB-19 CNS, in the experiment with T-47D breast and in the experiment on UO-31 renal was over 100 µM each time.
`CC(=O)Nc1ccc(C(=O)NN2C(=O)CSC2c2ccc([N+](=O)[O-])cc2)cc1` (centres undefined): the TGI with 786-0 renal, with CCRF-CEM leukemia, with HCC-2998 colon, in the experiment on HOP-62 NSCLC, in the experiment on HT29 colon and in the experiment with K-562 leukemia was over 100 µM in each case. Further, the TGI with MDA-MB-231 breast, with MOLT-4 leukemia, with OVCAR-8 ovarian, in the experiment on RPMI-8226 leukemia, with SK-MEL-5 melanoma and in the experiment with SK-OV-3 ovarian was over 100 µM each time. The TGI in the experiment on SN12C renal, with SNB-19 CNS, in the experiment with T-47D breast and in the experiment with UO-31 renal was over 100 µM in each case.
Turning to `CCCCC1=NNC(=O)C1`, the TGI in the experiment on 786-0 renal, in the experiment with CCRF-CEM leukemia, in the experiment on HCC-2998 colon, with HOP-62 NSCLC, with HT29 colon and with MDA-MB-231 breast was over 100 µM in each case. In addition, the TGI in the experiment on MOLT-4 leukemia, in the experiment on OVCAR-8 ovarian, in the experiment with RPMI-8226 leukemia, with SK-MEL-5 melanoma, in the experiment with SK-OV-3 ovarian and in the experiment on SN12C renal was over 100 µM throughout. Also, the TGI in the experiment on T-47D breast and in the experiment with UO-31 renal was over 100 µM each time.
In the case of `Oc1c(C2=NNC(c3ccc(Cl)cc3Cl)C2)ccc2ccccc12` (centres undefined), the TGI is over 100 µM in the experiment with 786-0 renal; 32.8 µM with CCRF-CEM leukemia; over 100 µM in the experiment on HCC-2998 colon; over 100 µM in the experiment on HOP-62 NSCLC; over 100 µM with HT29 colon; 76.9 µM in the experiment on K-562 leukemia. Further, the TGI in the experiment with MDA-MB-231 breast was over 100 µM; with MOLT-4 leukemia, 31.4 µM; with OVCAR-8 ovarian it was over 100 µM; in the experiment on RPMI-8226 leukemia it was over 100 µM; in the experiment on SK-MEL-5 melanoma, over 100 µM; in the experiment on SK-OV-3 ovarian, over 100 µM. Besides, the TGI in the experiment on SN12C renal, in the experiment with T-47D breast and in the experiment with UO-31 renal was over 100 µM throughout.
For the molecule `CNc1ccc(C(=O)CC(O)CCC(C)C2OC(=O)CC(O)CC(=O)CC(O)CC(O)CC(O)CC(O)CC3(O)CC(O)C(C(=O)NCCN(C)C)C(CC(OC4OC(C)C(O)C(NC(=O)CN5CCN(C)CC5)C4O)/C=C/C=C/C=C/C=C\C=C/C=C/C=C/C2C)O3)cc1` (centres undefined), the TGI in the experiment on 786-0 renal is over 100 µM; in the experiment with HOP-62 NSCLC it was over 100 µM; in the experiment with HT29 colon it was 9.92 µM; in the experiment with K-562 leukemia, over 100 µM; in the experiment with MDA-MB-231 breast, over 100 µM; with MOLT-4 leukemia it was over 100 µM. The TGI in the experiment on OVCAR-8 ovarian, with SK-OV-3 ovarian, with SN12C renal, in the experiment on T-47D breast and with UO-31 renal was over 100 µM each time.
